What was measured:
Nucleic Acid = conditions: Homo sapiens
Description: Binding affinity to human duplex DNA assessed as change in melting temperature by FRET-melting assay

SK-OV-3 = experiment: cells; conditions: Homo sapiens
Description: Anticancer activity against human SKOV3 cells

IGROV-1 = experiment: cells; conditions: Homo sapiens
Description: Anticancer activity against human IGROV1 cells

UACC-62 = experiment: cells; conditions: Homo sapiens
Description: Anticancer activity against human UACC62 cells

UACC-257 = experiment: cells; conditions: Homo sapiens
Description: Anticancer activity against human UACC257 cells

SK-MEL-5 = experiment: cells; conditions: Homo sapiens
Description: Anticancer activity against human SK-MEL-5 cells

Malme-3M = experiment: cells; conditions: Homo sapiens
Description: Anticancer activity against human MALME-3M cells

U-251 = experiment: cells; conditions: Homo sapiens
Description: Anticancer activity against human U251 cells

SNB-19 = experiment: cells; conditions: Homo sapiens
Description: Anticancer activity against human SNB19 cells

HT-29 = experiment: cells; conditions: Homo sapiens
Description: Anticancer activity against human HT-29 cells

HCT-15 = experiment: cells; conditions: Homo sapiens
Description: Anticancer activity against human HCT15 cells

HCT-116 = experiment: cells; conditions: Homo sapiens
Description: Anticancer activity against human HCT116 cells

NCI-H522 = experiment: cells; conditions: Homo sapiens
Description: Anticancer activity against human NCI-H522 cells

NCI-H460 = experiment: cells; conditions: Homo sapiens
Description: Anticancer activity against human NCI-H460 cells

NCI-H226 = experiment: cells; conditions: Homo sapiens
Description: Anticancer activity against human NCI-H226 cells

HOP-92 = experiment: cells; conditions: Homo sapiens
Description: Anticancer activity against human HOP92 cells

HOP-62 = experiment: cells; conditions: Homo sapiens
Description: Anticancer activity against human HOP62 cells

A549 = experiment: cells; conditions: Homo sapiens
Description: Anticancer activity against human A549 cells

cells [1] = conditions: Homo sapiens
Description: Anticancer activity against human RPMI8266 cells

K562 = experiment: cells; conditions: Homo sapiens
Description: Anticancer activity against human K562 cells

HL-60(TB) = experiment: cells; conditions: Homo sapiens
Description: Anticancer activity against human HL-60(TB) cells

CCRF-CEM = experiment: cells; conditions: Homo sapiens
Description: Anticancer activity against human CCRF-CEM cells

MDA-MB-435 = experiment: cells; conditions: Homo sapiens
Description: Anticancer activity against human MDA-MB-435 cells

cells [2] = conditions: Homo sapiens, Hs-578T
Description: Anticancer activity against human Hs 578T cells

MDA-MB-231 = experiment: cells; conditions: Homo sapiens
Description: Anticancer activity against human MDA-MB-231 cells

TK-10 = experiment: cells; conditions: Homo sapiens
Description: Anticancer activity against human TK10 cells

CAKI-1 = experiment: cells; conditions: Homo sapiens
Description: Anticancer activity against human Caki1 cells

ACHN = experiment: cells; conditions: Homo sapiens
Description: Anticancer activity against human ACHN cells

A498 = experiment: cells; conditions: Homo sapiens
Description: Anticancer activity against human A498 cells

Description for physchem: Dissociation constant, pKa of the compound by UV-visible spectroscopy

Structure (SMILES): CCN(CC)CCCCNc1c2ccccc2[n+](C)c2c1[nH]c1ccccc12.[Cl-]
- ΔTm (Nucleic Acid): 13.1 °C
- GI50 (SK-OV-3; SK-OV-3, read-out: pGI50 (converted)): 251 nM
- CC50 (SK-OV-3; SK-OV-3, read-out: pLC50 (converted)): 100 µM
- TGI (SK-OV-3; SK-OV-3, read-out: pTGI): 1820 nM
- GI50 (IGROV-1; IGROV-1, read-out: pGI50 (converted)): 468 nM
- CC50 (IGROV-1; IGROV-1, read-out: pLC50 (converted)): > 100 µM
- TGI (IGROV-1; IGROV-1, read-out: pTGI): 7.41 µM
- GI50 (UACC-62; UACC-62, read-out: pGI50 (converted)): 83.2 nM
- CC50 (UACC-62; UACC-62, read-out: pLC50 (converted)): 589 nM
- TGI (UACC-62; UACC-62, read-out: pTGI): 234 nM
- GI50 (UACC-257; UACC-257, read-out: pGI50 (converted)): 1550 nM
- CC50 (UACC-257; UACC-257, read-out: pLC50 (converted)): > 100 µM
- TGI (UACC-257; UACC-257, read-out: pTGI): 5.75 µM
- GI50 (SK-MEL-5; SK-MEL-5, read-out: pGI50 (converted)): 219 nM
- CC50 (SK-MEL-5; SK-MEL-5, read-out: pLC50 (converted)): 2240 nM
- TGI (SK-MEL-5; SK-MEL-5, read-out: pTGI): 617 nM
- GI50 (Malme-3M; read-out: pGI50 (converted)): 204 nM
- CC50 (Malme-3M; read-out: pLC50 (converted)): 2510 nM
- TGI (Malme-3M; read-out: pTGI): 646 nM
- GI50 (U-251; U-251, read-out: pGI50 (converted)): 229 nM
- CC50 (U-251; U-251, read-out: pLC50 (converted)): 24.5 µM
- TGI (U-251; U-251, read-out: pTGI): 1350 nM
- GI50 (SNB-19; SNB-19, read-out: pGI50 (converted)): 224 nM
- CC50 (SNB-19; SNB-19, read-out: pLC50 (converted)): 89.1 µM
- TGI (SNB-19; SNB-19, read-out: pTGI): 871 nM
- GI50 (HT-29; HT-29, read-out: pGI50 (converted)): 251 nM
- CC50 (HT-29; HT-29, read-out: pLC50 (converted)): > 100 µM
- TGI (HT-29; HT-29, read-out: pTGI): 1910 nM
- GI50 (HCT-15; HCT-15, read-out: pGI50 (converted)): 11.5 µM
- CC50 (HCT-15; HCT-15, read-out: pLC50 (converted)): > 100 µM
- TGI (HCT-15; HCT-15, read-out: pTGI): 49 µM
- GI50 (HCT-116; HCT-116, read-out: pGI50 (converted)): 331 nM
- CC50 (HCT-116; HCT-116, read-out: pLC50 (converted)): > 100 µM
- TGI (HCT-116; HCT-116, read-out: pTGI): 3.8 µM
- GI50 (NCI-H522; NCI-H522, read-out: pGI50 (converted)): 148 nM
- CC50 (NCI-H522; NCI-H522, read-out: pLC50 (converted)): 1820 nM
- TGI (NCI-H522; NCI-H522, read-out: pTGI): 457 nM
- GI50 (NCI-H460; NCI-H460, read-out: pGI50 (converted)): 91.2 nM
- CC50 (NCI-H460; NCI-H460, read-out: pLC50 (converted)): 52.5 µM
- TGI (NCI-H460; NCI-H460, read-out: pTGI): 1290 nM
- GI50 (NCI-H226; NCI-H226, read-out: pGI50 (converted)): 166 nM
- CC50 (NCI-H226; NCI-H226, read-out: pLC50 (converted)): > 100 µM
- TGI (NCI-H226; NCI-H226, read-out: pTGI): 676 nM
- GI50 (HOP-92; HOP-92, read-out: pGI50 (converted)): 263 nM
- CC50 (HOP-92; HOP-92, read-out: pLC50 (converted)): > 100 µM
- TGI (HOP-92; HOP-92, read-out: pTGI): 955 nM
- GI50 (HOP-62; HOP-62, read-out: pGI50 (converted)): 1100 nM
- CC50 (HOP-62; HOP-62, read-out: pLC50 (converted)): 61.7 µM
- TGI (HOP-62; HOP-62, read-out: pTGI): 4.47 µM
- GI50 (A549; A549, read-out: pGI50 (converted)): 52.5 nM
- CC50 (A549; A549, read-out: pLC50 (converted)): > 100 µM
- TGI (A549; A549, read-out: pTGI): 15.5 µM
- GI50 (cells [1]; RPMI8266, read-out: pGI50 (converted)): 288 nM
- CC50 (cells [1]; RPMI8266, read-out: pLC50 (converted)): > 100 µM
- TGI (cells [1]; RPMI8266, read-out: pTGI): 1660 nM
- CC50 (K562; K562, read-out: pLC50 (converted)): > 100 µM
- TGI (K562; K562, read-out: pTGI): > 100 µM
- GI50 (HL-60(TB); HL-60, read-out: pGI50 (converted)): 20.4 µM
- CC50 (HL-60(TB); HL-60, read-out: pLC50 (converted)): > 100 µM
- TGI (HL-60(TB); HL-60, read-out: pTGI): > 100 µM
- GI50 (CCRF-CEM; read-out: pGI50 (converted)): 427 nM
- CC50 (CCRF-CEM; read-out: pLC50 (converted)): > 100 µM
- TGI (CCRF-CEM; read-out: pTGI): 2570 nM
- GI50 (MDA-MB-435; MDA-MB-435, read-out: pGI50 (converted)): 631 nM
- CC50 (MDA-MB-435; MDA-MB-435, read-out: pLC50 (converted)): 5.62 µM
- TGI (MDA-MB-435; MDA-MB-435, read-out: pTGI): 2090 nM
- GI50 (cells [2]; read-out: pGI50 (converted)): 269 nM
- CC50 (cells [2]; read-out: pLC50 (converted)): 93.3 µM
- TGI (cells [2]; read-out: pTGI): 955 nM
- GI50 (MDA-MB-231; MDA-MB-231, read-out: pGI50 (converted)): > 100 µM
- CC50 (MDA-MB-231; MDA-MB-231, read-out: pLC50 (converted)): 100 µM
- TGI (MDA-MB-231; MDA-MB-231, read-out: pTGI): > 100 µM
- GI50 (TK-10; TK-10, read-out: pGI50 (converted)): 2140 nM
- CC50 (TK-10; TK-10, read-out: pLC50 (converted)): > 100 µM
- TGI (TK-10; TK-10, read-out: pTGI): 8.91 µM
- GI50 (CAKI-1; CAKI-1, read-out: pGI50 (converted)): 6.92 µM
- CC50 (CAKI-1; CAKI-1, read-out: pLC50 (converted)): 100 µM
- TGI (CAKI-1; CAKI-1, read-out: pTGI): 32.4 µM
- GI50 (ACHN; read-out: pGI50 (converted)): 2950 nM
- CC50 (ACHN; read-out: pLC50 (converted)): > 100 µM
- TGI (ACHN; read-out: pTGI): 22.4 µM
- GI50 (A498; A498, read-out: pGI50 (converted)): 468 nM
- CC50 (A498; A498, read-out: pLC50 (converted)): < 7.59 µM
- TGI (A498; A498, read-out: pTGI): 2040 nM
- pKa (physchem): 11.6

— ChEMBL document CHEMBL1287680, “C-11 diamino cryptolepine derivatives NSC748392, NSC748393, and NSC748394: anticancer profile and G-quadruplex stabilization” (Bioorg Med Chem Lett, 2010)
